Experimental findings from PubChem BioAssay (NCI) are described below.

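Step 1: Grow cells in 96-well plates. Step 2: Expose to compound for 48 hours at 5 concentrations. Step 3: Interpolate endpoints linearly; if unreached, use highest concentration. The concentration for full growth arrest is given as TGI.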 Some results are limits rather than exact numbers.

Among the test systems are HCC-2998 colon; HCT-15 colon; HOP-62 NSCLC; MCF7 breast; MDA-N; NCI-H23 lung; NCI-H522 lung; RPMI-8226 leukemia; SF-268 CNS; UACC-257 melanoma.
Common to all, as to experiment: NCI tumour cell line growth inhibition, 48 h

In the case of `O=P(O)(O)CN1CCNCCN(CP(=O)(O)O)CCNCC1`, the TGI in the experiment with HCC-2998 colon, in the experiment on HCT-15 colon, with HOP-62 NSCLC, in the experiment with MCF7 breast, in the experiment on MDA-N and in the experiment with NCI-H23 lung was > 100 µM in each case. Also, the TGI in the experiment on NCI-H522 lung, in the experiment on RPMI-8226 leukemia, in the experiment on SF-268 CNS and with UACC-257 melanoma was > 100 µM each time.
`O=C1C=C(N2CCN(c3ccccn3)CC2)C(=O)c2c(O)ccc(O)c21`: the TGI in the experiment with HCC-2998 colon turned out to be 43.1 µM; in the experiment on HCT-15 colon, 39.1 µM; in the experiment with HOP-62 NSCLC it was 47.7 µM; in the experiment with MCF7 breast, 18.6 µM; in the experiment with MDA-N, 5.76 µM; in the experiment with NCI-H23 lung, 13 µM. The TGI is 41.2 µM in the experiment with NCI-H522 lung, 41.7 µM in the experiment on RPMI-8226 leukemia, > 56.2 µM in the experiment on SF-268 CNS and 23.4 µM with UACC-257 melanoma.
In the case of `[N-]=[N+]=C(C(=O)C(=[N+]=[N-])C(=O)c1ccccc1)C(=O)c1ccccc1`, the TGI in the experiment with HCC-2998 colon, with HCT-15 colon, in the experiment with HOP-62 NSCLC, in the experiment with MCF7 breast, in the experiment on MDA-N and in the experiment on NCI-H23 lung was > 100 µM each time. Moreover, the TGI in the experiment on NCI-H522 lung, in the experiment with RPMI-8226 leukemia, in the experiment with SF-268 CNS and with UACC-257 melanoma was > 100 µM in each case.
For the compound `COC(=O)C(C(=O)C(=O)NC1Nc2ccc(C)cc2S1)c1nc2ccc(Cl)cc2[nH]c1=O` (stereo not given), the TGI in the experiment with HCC-2998 colon, in the experiment with HCT-15 colon, in the experiment with HOP-62 NSCLC, in the experiment with MCF7 breast, in the experiment on MDA-N and in the experiment on NCI-H23 lung was > 100 µM in each case. The TGI with NCI-H522 lung, in the experiment on RPMI-8226 leukemia, in the experiment with SF-268 CNS and in the experiment on UACC-257 melanoma was > 100 µM in each case.
Take `O=c1oc2ccc(Cl)cc2cc1-c1cn2ccsc2n1`: the TGI is > 100 µM in the experiment with HCC-2998 colon; > 100 µM with HCT-15 colon; > 100 µM in the experiment on HOP-62 NSCLC; 65.4 µM in the experiment with MCF7 breast; > 100 µM in the experiment with MDA-N; > 100 µM with NCI-H23 lung. The TGI with NCI-H522 lung was 47.9 µM; with RPMI-8226 leukemia, > 100 µM; with SF-268 CNS it was > 100 µM; in the experiment on UACC-257 melanoma it was > 100 µM.
Regarding `O=C1/C(=C\c2cccc(Oc3ccccc3)c2)SC(c2ccccc2)N1c1cccc([N+](=O)[O-])c1` (stereo not given), the TGI in the experiment with HCC-2998 colon, with HCT-15 colon, in the experiment on HOP-62 NSCLC, with MCF7 breast, in the experiment with MDA-N and in the experiment with NCI-H23 lung was > 100 µM throughout. Besides, the TGI in the experiment on NCI-H522 lung, in the experiment with RPMI-8226 leukemia, in the experiment with SF-268 CNS and in the experiment with UACC-257 melanoma was > 100 µM in each case.
Turning to `COC(=O)c1c(OC)cc2cc3c(c(O)c2c1C)C(=O)C1(O)C(=O)C=C(OC)C(OC(=O)CC(C)N)=C1C3=O` (stereo not given), the TGI is 87.9 µM in the experiment on HCC-2998 colon; > 100 µM with HCT-15 colon; > 100 µM with HOP-62 NSCLC; 67.3 µM with MCF7 breast; > 100 µM with MDA-N; > 100 µM with NCI-H23 lung. Besides, the TGI was > 100 µM in the experiment with NCI-H522 lung, 39.7 µM with RPMI-8226 leukemia, > 100 µM with SF-268 CNS and > 100 µM in the experiment with UACC-257 melanoma.
For the compound `CCCCCCCCCCCCCCCCOCC(Cl)COP(=O)(O)OP(=O)(O)OCC1OC(n2cnc3c(N)ncnc32)C(O)C1O` (stereo not given), the TGI in the experiment on HCC-2998 colon, with HCT-15 colon, with HOP-62 NSCLC, with MCF7 breast, with MDA-N and in the experiment with NCI-H23 lung was > 100 µM each time. Besides, the TGI in the experiment with NCI-H522 lung, with RPMI-8226 leukemia, in the experiment on SF-268 CNS and with UACC-257 melanoma was > 100 µM each time.
As to `CCN(CC)CCN(C)CCc1ccc(Br)cc1`, the TGI with HCC-2998 colon, in the experiment with HCT-15 colon, in the experiment with HOP-62 NSCLC, in the experiment with MCF7 breast, with MDA-N and in the experiment on NCI-H23 lung was > 100 µM throughout. Besides, the TGI in the experiment with NCI-H522 lung, in the experiment with RPMI-8226 leukemia, in the experiment on SF-268 CNS and in the experiment on UACC-257 melanoma was > 100 µM each time.
As to `Cc1ccc(/C=C2\CN(C)CC3C2=NC(=S)NC3c2ccc(C)cc2)cc1` (stereo not given), the TGI in the experiment on HCC-2998 colon is 33.4 µM; in the experiment with HCT-15 colon, > 100 µM; with HOP-62 NSCLC it was > 100 µM; in the experiment with MCF7 breast it was > 100 µM; in the experiment on MDA-N, 80.5 µM; in the experiment with NCI-H23 lung it was > 100 µM. Moreover, the TGI in the experiment with NCI-H522 lung, in the experiment with RPMI-8226 leukemia, in the experiment on SF-268 CNS and with UACC-257 melanoma was > 100 µM throughout.
Regarding `CC1=C2NCN(C)N=C2C(C#N)(C#N)C1(C#N)C#N`, the TGI with HCC-2998 colon is 44.4 µM; in the experiment with HCT-15 colon, 40.5 µM; in the experiment with HOP-62 NSCLC, > 100 µM; in the experiment on MCF7 breast it was > 70.7 µM; with MDA-N, 30 µM; with NCI-H23 lung it was 21.4 µM. For the same compound, the TGI with NCI-H522 lung is 28.5 µM; in the experiment on RPMI-8226 leukemia, 37.3 µM; in the experiment on SF-268 CNS it was > 76.6 µM; in the experiment with UACC-257 melanoma, 33.9 µM.
As for `NC(=S)N/N=C\CC(O)(C(F)(F)F)C(F)(F)F`, the TGI in the experiment on HCC-2998 colon, in the experiment with HCT-15 colon, in the experiment on HOP-62 NSCLC, with MCF7 breast, in the experiment on MDA-N and in the experiment with NCI-H23 lung was > 10 µM in each case. Besides, the TGI in the experiment with NCI-H522 lung, with RPMI-8226 leukemia, in the experiment with SF-268 CNS and in the experiment on UACC-257 melanoma was > 10 µM throughout.
As to `CCCNC(=O)CCC(C)[C@H]1CCC2C3C(C[C@H](OC(C)=O)[C@@]21C)[C@@]1(C)CCC2(C[C@H]1C[C@H]3OC(C)=O)OOC1(CCCCC1)OO2` (stereo not given in full), the TGI was > 43.3 µM in the experiment on HCC-2998 colon; > 100 µM in the experiment on HCT-15 colon; 1.34 µM in the experiment on HOP-62 NSCLC; > 56.1 µM with MCF7 breast; 16.6 µM in the experiment on MDA-N; 3.54 µM in the experiment on NCI-H23 lung. In addition, the TGI with NCI-H522 lung is 1.44 µM; with RPMI-8226 leukemia, 4.68 µM; with SF-268 CNS, 10.4 µM; in the experiment with UACC-257 melanoma it was > 100 µM.
As to `Cc1cn([C@H]2[C@@H](CO)C[C@H]2O)c(=O)[nH]c1=O`, the TGI in the experiment on HCC-2998 colon, in the experiment with HCT-15 colon, in the experiment on HOP-62 NSCLC, in the experiment with MCF7 breast, in the experiment on MDA-N and in the experiment on NCI-H23 lung was > 100 µM throughout. The TGI in the experiment with NCI-H522 lung, in the experiment on RPMI-8226 leukemia, in the experiment with SF-268 CNS and with UACC-257 melanoma was > 100 µM in each case.
Take `CC(=O)c1ccc(NC(=O)CSc2nc(C)nc3c2sc(=S)n3-c2ccccc2)cc1`: the TGI with HCC-2998 colon is > 3.16 µM; in the experiment on HCT-15 colon, > 3.16 µM; with HOP-62 NSCLC, > 3.16 µM; in the experiment with MCF7 breast, > 10 µM; in the experiment on MDA-N, > 3.16 µM; in the experiment on NCI-H23 lung, > 3.16 µM. Also, the TGI in the experiment with NCI-H522 lung, with RPMI-8226 leukemia, in the experiment with SF-268 CNS and with UACC-257 melanoma was > 3.16 µM in each case.
Turning to `O=C(CSc1nc2ccc(I)cc2c(=O)n1Cc1ccccc1)NN1C(=O)CCC1=O`, the TGI in the experiment with HCC-2998 colon is > 100 µM; in the experiment with HCT-15 colon it was > 100 µM; with HOP-62 NSCLC, > 100 µM; in the experiment with MCF7 breast, > 100 µM; with MDA-N it was > 100 µM; in the experiment with NCI-H23 lung, 66.6 µM. The TGI in the experiment on NCI-H522 lung is 47.1 µM; in the experiment with RPMI-8226 leukemia it was > 100 µM; in the experiment on SF-268 CNS it was > 100 µM; with UACC-257 melanoma, > 100 µM.
